Measurements from publication PMC12551991, “Inheritance and enzymatic basis of anthocyanin malonylation in Fragaria × ananassa” (The Plant Journal, 2025).

Columns and labels:
Experiment in all cases: LC-MS malonyltransferase assay, non-linear Michaelis-Menten fit
Type in all cases: biochemical, Fragaria × ananassa
Conditions in all cases: potassium phosphate pH 7.0, 30°C, 30 min
MAT1C (FaMAT1C) = test system: T1, MAT1C (FaMAT1C)
T1 construct: gene MAT1; no tag removal described
From the text: LC-MS malonyltransferase assay, non-linear Michaelis-Menten fit on MAT1C (FaMAT1C)

MAT4C1/S1 (FaMAT4C1) = test system: T2, MAT4C1/S1 (FaMAT4C1)
T2 construct: gene MAT4; no tag removal described
From the text: LC-MS malonyltransferase assay, non-linear Michaelis-Menten fit on MAT4C1/S1 (FaMAT4C1)

MAT1S (FaMAT1S) = test system: T3, MAT1S (FaMAT1S)
T3 construct: gene MAT1; no tag removal described
From the text: LC-MS malonyltransferase assay, non-linear Michaelis-Menten fit on MAT1S (FaMAT1S)

MAT2C1/S1 (MAT2S1) = test system: T4, MAT2C1/S1 (MAT2S1)
T4 construct: gene MAT2; no tag removal described
From the text: LC-MS malonyltransferase assay, non-linear Michaelis-Menten fit on MAT2C1/S1 (MAT2S1)

MAT2C2/S2 (MAT2S2) = test system: T5, MAT2C2/S2 (MAT2S2)
T5 construct: gene MAT2; no tag removal described
From the text: LC-MS malonyltransferase assay, non-linear Michaelis-Menten fit on MAT2C2/S2 (MAT2S2)

[1] = acceptor, co-substrate malonyl-CoA
[2] = donor, co-substrate quercetin-3-glucoside

Row | Km (MAT1C (FaMAT1C); [1]) [µM] | Km (MAT4C1/S1 (FaMAT4C1); [1]) [µM] | Km (MAT1S (FaMAT1S); [1]) [µM] | Km (MAT2C1/S1 (MAT2S1); [1]) [µM] | Km (MAT2C2/S2 (MAT2S2); [2]) [µM] | Km (MAT1C (FaMAT1C); [2]) [µM] | Km (MAT2C1/S1 (MAT2S1); [2]) [µM] | Km (MAT4C1/S1 (FaMAT4C1); [2]) [µM] | Km (MAT1S (FaMAT1S); [2]) [µM] | Km (MAT2C2/S2 (MAT2S2); [1]) [µM] | SMILES
1 | 17 ± 3 | 63 ± 30 | 11 ± 3 |  |  |  |  |  |  |  | OC[C@H]1O[C@@H](Oc2cc3c(O)cc(O)cc3[o+]c2-c2ccc(O)c(O)c2)[C@H](O)[C@@H](O)[C@@H]1O [Cyanidin‐3‐glucoside]
2 | 150 ± 40 | 250 ± 80 | 300 ± 60 | 790 ± 300 |  |  |  |  |  |  | O=c1c(O[C@@H]2O[C@H](CO)[C@@H](O)[C@H](O)[C@H]2O)c(-c2ccc(O)cc2)oc2cc(O)cc(O)c12 [Kaempferol‐3‐glucoside]
3 |  |  |  |  | 24 ± 20 | 700 ± 200 | 22 ± 10 | 410 ± 200 | 450 ± 200 |  | CC(C)(COP(=O)(O)OP(=O)(O)OC[C@H]1O[C@@H](n2cnc3c(N)ncnc32)[C@H](O)[C@@H]1OP(=O)(O)O)[C@@H](O)C(=O)NCCC(=O)NCCSC(=O)CC(=O)O [Malonyl‐CoA]
4 | 270 ± 100 | 390 ± 200 | 400 ± 200 |  |  |  |  |  |  |  | OC[C@H]1O[C@@H](Oc2cc3c(O)cc(O)cc3[o+]c2-c2ccc(O)cc2)[C@H](O)[C@@H](O)[C@@H]1O [Pelargonidin‐3‐glucoside]
5 | 310 ± 100 | 220 ± 100 | 300 ± 100 | 180 ± 50 |  |  |  |  |  | 180 ± 60 | O=c1c(O[C@@H]2O[C@H](CO)[C@@H](O)[C@H](O)[C@H]2O)c(-c2ccc(O)c(O)c2)oc2cc(O)cc(O)c12 [Quercetin‐3‐glucoside]
